# Source: PMC10817917, “Alkyl deoxyglycoside-polymyxin combinations against critical priority carbapenem-resistant gram-negative bacteria” (Scientific Reports, 2024)
# Values joined by “and” are separate entries in the source; they are usually repeats but may differ in a detail not shown here. Identical values can stand only once. Like-named read-outs stand apart in the source and are kept apart here.
# How the values were obtained:
# E. coli NCTC 13846 = experiment: Broth microdilution MIC/MBC, glycosides with or without polymyxins; type: cell-based, Escherichia coli; details: strain B
# [1] = tested on: Bacillus anthracis (Sterne, ovine and pathogenic forms), Enterococcus faecalis and Bacillus cereus; details: Gram-positive bacteria; cited from earlier work
# P. aeruginosa CQ4924 = experiment: Broth microdilution MIC, glycosides with or without polymyxins; type: cell-based, Pseudomonas aeruginosa; details: for MIC: Pseudomonas aeruginosa, CQ4924
# K. pneumoniae CQ4921 = experiment: Broth microdilution MIC/MBC, glycosides with or without polymyxins; type: cell-based, Klebsiella pneumoniae; details: for MIC: Klebsiella pneumoniae, CQ4921
# E. coli ATCC 25922 = experiment: as above; type: cell-based, Escherichia coli; details: for MIC: Escherichia coli, ATCC25922
# K. pneumoniae CQ1947 = experiment: Broth microdilution MIC, glycosides with or without polymyxins; type: cell-based, Klebsiella pneumoniae; details: Cpd conc. 0.4 μg/mL; strain F
# [2] = alone, read-out: MICA (MIC of each compound individually)
# [3] = combination with the lowest FICI
# [4] = compound + colistin, lowest FICI
smiles,measurement,setting,value
"CCCCCCCCCCCCO[C@@H]1O[C@H](C)C[C@H](O)[C@H]1O [Compound 2, dodecyl 4,6-dideoxy-α/β-D-xylo-hexopyranoside]",MIC of colistin in combination with the compound,E. coli NCTC 13846; Cpd conc. 0.4 μg/mL,> 0.5 µg/mL
same,MIC of colistin in combination with the compound,E. coli NCTC 13846; Cpd conc. 0.8 μg/mL,> 0.5 µg/mL
same,MIC of colistin in combination with the compound,E. coli NCTC 13846; Cpd conc. 3.125 μg/mL,> 0.5 µg/mL
same,MIC of colistin in combination with the compound,E. coli NCTC 13846; Cpd conc. 6.25 μg/mL,> 0.5 µg/mL
same,MIC of colistin in combination with the compound,E. coli NCTC 13846; Cpd conc. 12.5 μg/mL,> 0.5 µg/mL
same,MIC of colistin in combination with the compound,E. coli NCTC 13846; Cpd conc. […],> 0.5 µg/mL
same,MIC,"E. coli NCTC 13846; Escherichia coli, NCTC13846, agent alone, no adjuvant (polymyxin conc. 0), read-out: MIC",> 100 µg/mL
same,MIC of compound in combination with PMB,E. coli NCTC 13846; PMB 0.25 μg/mL,> 100 µg/mL
same,MIC of compound in combination with PMB,E. coli NCTC 13846; PMB 0.5 μg/mL,> 100 µg/mL
same,MIC of compound in combination with colistin,E. coli NCTC 13846; colistin 0.06 μg/mL,> 100 µg/mL
same,MBC of compound in combination with colistin,E. coli NCTC 13846; colistin 0.125 μg/mL,> 100|> 100 μg/mL
same,MIC of compound in combination with colistin,E. coli NCTC 13846; colistin 0.125 μg/mL,> 100|> 100 μg/mL
same,MIC of compound in combination with colistin,E. coli NCTC 13846; colistin 0.25 μg/mL,> 100 µg/mL
same,MIC of compound in combination with colistin,E. coli NCTC 13846; colistin 0.5 μg/mL,> 100 µg/mL
same,MIC,[1],> 405 µM
same,MIC of colistin in combination with the compound,"P. aeruginosa CQ4924; Cpd conc. 0.4 μg/mL, strain H",> 0.5 µg/mL
same,MIC of colistin in combination with the compound,"P. aeruginosa CQ4924; Cpd conc. 0.8 μg/mL, strain H",> 0.5 µg/mL
same,MIC of colistin in combination with the compound,"P. aeruginosa CQ4924; Cpd conc. 3.125 μg/mL, strain H",> 0.5 µg/mL
same,MIC of colistin in combination with the compound,"P. aeruginosa CQ4924; Cpd conc. 6.25 μg/mL, strain H",0.5 µg/mL
same,MIC of colistin in combination with the compound,"P. aeruginosa CQ4924; Cpd conc. 12.5 μg/mL, strain H",0.5 µg/mL
same,MIC of colistin in combination with the compound,"P. aeruginosa CQ4924; Cpd conc. […], strain H",> 0.5 µg/mL
same,MIC of compound in combination with PMB,"P. aeruginosa CQ4924; PMB 0.25 μg/mL, strain H",> 100 µg/mL
same,MIC,"P. aeruginosa CQ4924; agent alone, no adjuvant (polymyxin conc. 0), strain H, read-out: MIC",> 100 µg/mL
same,MIC,P. aeruginosa CQ4924; [2],> 100 µg/mL
same,MIC of compound in combination with colistin,"P. aeruginosa CQ4924; colistin 0.06 μg/mL, strain H",> 100 µg/mL
same,MIC of compound in combination with colistin,"P. aeruginosa CQ4924; colistin 0.125 μg/mL, strain H",> 100 µg/mL
same,MIC of compound in combination with colistin,"P. aeruginosa CQ4924; colistin 0.25 μg/mL, strain H",> 100 µg/mL
same,MIC of compound in combination with colistin,"P. aeruginosa CQ4924; colistin 0.5 μg/mL, strain H",6.3 µg/mL
same,MICA(A + B) (MIC of compound in combination with colistin),P. aeruginosa CQ4924; [3],6.25 mg/L
same,MICB(A + B) (MIC of colistin in combination with compound),P. aeruginosa CQ4924; [3],0.5 mg/L
same,Interpretation (of FICI),P. aeruginosa CQ4924; compound + colistin,Additive (from 0.5 to 1.0 were additive)
same,FICI,P. aeruginosa CQ4924; [4],0.53
same,MIC of colistin in combination with the compound,"K. pneumoniae CQ4921; Cpd conc. 0.4 μg/mL, strain C",0.5 µg/mL
same,MIC of colistin in combination with the compound,"K. pneumoniae CQ4921; Cpd conc. 0.8 μg/mL, strain C",0.5 µg/mL
same,MIC of colistin in combination with the compound,"K. pneumoniae CQ4921; Cpd conc. 3.125 μg/mL, strain C",0.125 µg/mL
same,MIC of colistin in combination with the compound,"K. pneumoniae CQ4921; Cpd conc. 6.25 μg/mL, strain C",0.125 µg/mL
same,MIC of colistin in combination with the compound,"K. pneumoniae CQ4921; Cpd conc. 12.5 μg/mL, strain C",0.125 µg/mL
same,MIC of colistin in combination with the compound,"K. pneumoniae CQ4921; Cpd conc. […], strain C",0.5 µg/mL
same,MIC,"K. pneumoniae CQ4921; agent alone, no adjuvant (polymyxin conc. 0), strain C, read-out: MIC",> 100 µg/mL
same,MIC,K. pneumoniae CQ4921; [2],> 100 µg/mL
same,MIC of compound in combination with PMB,"K. pneumoniae CQ4921; PMB 0.5 μg/mL, strain C",≤ 0.1 µg/mL
same,MIC of compound in combination with colistin,"K. pneumoniae CQ4921; colistin 0.06 μg/mL, strain C",> 100 µg/mL
same,MBC of compound in combination with colistin,"K. pneumoniae CQ4921; colistin 0.125 μg/mL, strain C",6.3 µg/mL
same,MIC of compound in combination with colistin,"K. pneumoniae CQ4921; colistin 0.125 μg/mL, strain C",3.1 µg/mL
same,MIC of compound in combination with colistin,"K. pneumoniae CQ4921; colistin 0.25 μg/mL, strain C",3.1 µg/mL
same,MIC of compound in combination with colistin,"K. pneumoniae CQ4921; colistin 0.5 μg/mL, strain C",≤ 0.1 µg/mL
same,MICA(A + B) (MIC of compound in combination with colistin),K. pneumoniae CQ4921; [3],3.125 mg/L
same,MICB(A + B) (MIC of colistin in combination with compound),K. pneumoniae CQ4921; [3],0.125 mg/L
same,Interpretation (of FICI),K. pneumoniae CQ4921; compound + colistin,Synergy (Values ≤ 0.5 were considered synergistic)
same,FICI,K. pneumoniae CQ4921; [4],0.27
same,MIC of colistin in combination with the compound,"E. coli ATCC 25922; Cpd conc. 0.4 μg/mL, strain A",> 0.5 µg/mL
same,MIC of colistin in combination with the compound,"E. coli ATCC 25922; Cpd conc. 0.8 μg/mL, strain A",0.5 µg/mL
same,MIC of colistin in combination with the compound,"E. coli ATCC 25922; Cpd conc. 3.125 μg/mL, strain A",≤ 0.06 µg/mL
same,MIC of colistin in combination with the compound,"E. coli ATCC 25922; Cpd conc. 6.25 μg/mL, strain A",≤ 0.06 µg/mL
same,MIC of colistin in combination with the compound,"E. coli ATCC 25922; Cpd conc. 12.5 μg/mL, strain A",≤ 0.06 µg/mL
same,MIC of colistin in combination with the compound,"E. coli ATCC 25922; Cpd conc. […], strain A",0.5 µg/mL
same,MIC,"E. coli ATCC 25922; agent alone, no adjuvant (polymyxin conc. 0), strain A, read-out: MIC",> 100 µg/mL
same,MIC,E. coli ATCC 25922; [2],> 100 µg/mL
same,MIC of compound in combination with PMB,"E. coli ATCC 25922; PMB 0.5 μg/mL, strain A",0.8 µg/mL
same,MIC of compound in combination with colistin,"E. coli ATCC 25922; colistin 0.06 μg/mL, strain A",3.1 µg/mL
same,MBC of compound in combination with colistin,"E. coli ATCC 25922; colistin 0.125 μg/mL, strain A",3.1|3.1 μg/mL
same,MIC of compound in combination with colistin,"E. coli ATCC 25922; colistin 0.125 μg/mL, strain A",3.1 μg/mL and 3.1|3.1 μg/mL
same,MIC of compound in combination with colistin,"E. coli ATCC 25922; colistin 0.25 μg/mL, strain A",3.1 µg/mL
same,MIC of compound in combination with colistin,"E. coli ATCC 25922; colistin 0.5 μg/mL, strain A",0.4 µg/mL
same,MICA(A + B) (MIC of compound in combination with colistin),E. coli ATCC 25922; [3],3.125 mg/L
same,MICB(A + B) (MIC of colistin in combination with compound),E. coli ATCC 25922; [3],0.06 mg/L
same,Interpretation (of FICI),E. coli ATCC 25922; compound + colistin,Synergy (Values ≤ 0.5 were considered synergistic)
same,FICI,E. coli ATCC 25922; [4],0.14
same,MIC of colistin in combination with the compound,K. pneumoniae CQ1947,> 0.5 µg/mL
